The values that follow are results of earlier work, collected in patent US10561603B2, “Core-shell structure and topical agent” (SEKISUI CHEMICAL CO., LTD., priority 2015, dated 2020).

The conditions of the data set: given with manufacturer and molecular weight of the drug raw material.

Counter-ions that a name gives are not always drawn.

Turning to `C[C@@H](O)[C@@H]1NC(=O)[C@H](CCCCN)NC(=O)[C@@H](Cc2c[nH]c3ccccc23)NC(=O)[C@H](Cc2ccccc2)NC(=O)[C@@H](NC(=O)[C@H](N)Cc2ccccc2)CSSC[C@@H](C(=O)N[C@H](CO)[C@@H](C)O)NC1=O` [octreotide acetate], the water-octanol partition coefficient is 0.1.

As for `CCCc1nc(C)c2c(=O)[nH]c(-c3cc(S(=O)(=O)N4CCN(CC)CC4)ccc3OCC)nn12` [vardenafil hydrochloride trihydrate], the water-octanol partition coefficient is reported as 3.2.
